Experimental data reported in US20250009819A1, “NOVEL PROBIOTICS AND USE THEREOF” (PBLBIOLAB CO., LTD., priority 2021, published 2025).

Assays:
[1] = system: Clostridium difficile; experiment: Clostridium difficile proliferation in gut microbiota (PCR); assay type: cell-based; conditions: for Gut microbiota Inhibition of difficile bacteria proliferation: human feces culture, lactic acid bacteria 1×10^6 CFU/mL, anaerobic 24 hr
In short: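 Human fecal supernatant, diluted 10,000-fold in GAM, co-cultured anaerobically 24 h with lactic acid bacteria (1×10^6 CFU/mL). C. difficile quantified by PCR on pellet DNA (95 °C 30 s; 42 cycles 95 °C 5 s/72 °C 30 s); supernatant LPS measured by ELISA.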

[2] = system: gut microbiota; experiment: LPS production in gut microbiota (ELISA); assay type: cell-based; conditions: human feces culture; lactic acid bacteria 1×10^6 CFU/mL; anaerobic 24 hr
Procedure: Fresh human feces were suspended in anaerobic medium (GAM, Nissui Pharmaceutical Co., Ltd., Japan) and allowed to stand for 10 min. The supernatant was diluted with 10,000-fold anaerobic medium, 0.05 mL of the dilution was transplanted into 5 mL of freshly made anaerobic medium, and lactic acid bacteria (1×10^6 CFU/mL) were implanted and incubated anaerobically for 24 hr.

[3] = system: Neuropeptide Y (NPY); experiment: Neuropeptide Y (NPY) expression in PC12 phaeochromocytoma cells; assay type: cell-based; conditions: LPS 200 ng/ml; lactic acid bacteria 1×10^4 CFU/ml; 24 hr
Procedure: PC12 cells obtained from the Korean Cell Line Bank were cultured in DMEM medium supplemented with 10% FBS and 1% antibiotics, and dispensed at 1×10^6 cells per well in a 12-well plate. Then, LPS (200 ng/ml) was added to each well along with lactic acid bacteria (1×10^4 CFU/ml) and incubated for 24 hr. The cells and supernatants were collected, sonicated and centrifuged, and the amount of NPY in the supernatant was measured by ELISA kit.

[4] = system: animals with LPS-induced cognitive impairment; experiment: Animals with LPS-induced cognitive impairment: colitis improvement (colon); assay type: in vivo, C57BL/6 male mice; conditions: LPS-treated mice, 1×10^9 CFU/mouse or sulfasalazine 50 mg/kg once a day for 5 days
Procedure: To 100 mg of colon tissue, 200 μl of 10 mM potassium phosphate buffer (pH 7.0) containing 0.5% hexadecyl trimethyl ammonium bromide was added and homogenized. Then, the supernatant was obtained by centrifugation for 10 minutes at 4° C. and 10,000 g. A volume of 50 μl of the supernatant was added to 0.95 mk of reaction solution (containing 1.6 mM tetramethyl benzidine and 0.1 mM H2O2), reacted at 37° C., and absorbance was monitored over time at 650 nm.
(§1) Hippocampus, colon, and spleen tissues were homogenized by adding 1 ml of RIPA buffer (Gibco) containing protease inhibitor cocktail and centrifuged at 4° C., 13000 rpm for 15 min to obtain supernatant. Indicators of this supernatant were measured using an ELISA kit (Ebioscience).
(§2) C57BL/6 male mice (5 weeks old, 19-21 g) were divided (6 mice in each group) and acclimatized to the laboratory for 1 week. To induce intestinal and brain diseases, mice were intraperitoneally administered Escherichia coli-derived LPS (10 μg/kg) once daily for 5 days. […] Experimental animals in the normal group were orally administered with a physiological saline solution, which was used to suspend lactic acid bacteria. The day following the conclusion of sample administration, the experimental animals were sacrificed, and samples from the brain hippocampus, colon, and spleen were collected. In the Hippocampus, inflammatory indicators, such as IFN-γ, TNF-α, and IL-10, were measured using ELISA. In the colon, intestinal length and inflammatory indicators, such as IFN-γ, TNF-α, and IL-10, were measured. In the spleen, Th1 cells and Treg cells were measured by FACS (Fluorescence-Activated Cell Sorting).

[5] = Antioxidant activity (DPPH, in vitro); assay type: biochemical; conditions: DPPH 0.2 mM; lactic acid bacteria suspension 1×10^8 CFU/ml; 37° C. 20 min
In short: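 Lactic acid bacteria suspension (1×10^8 CFU/ml) or vitamin C (1 g/ml) was mixed with 0.2 mM ethanolic DPPH and incubated 20 min at 37° C. After centrifugation, supernatant absorbance at 517 nm gave the antioxidant activity.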

[6] = system: animals with LPS-induced cognitive impairment; experiment: Animals with LPS-induced cognitive impairment: cognitive improvement, hippocampus indicators; assay type: in vivo, C57BL/6 male mice; conditions: LPS-treated mice, 1×10^9 CFU/mouse or sulfasalazine 50 mg/kg once a day for 5 days
Procedure: as §1
The Y-shaped maze measurement device is shaped like an alphabetical Y with three arms extending from it, each arm being 25 cm long, 14 cm high, 5 cm wide, and positioned at the same angle. At the end of one arm of the Y-shaped maze, the animal was placed with its head facing out and allowed to freely navigate the arm for 8 minutes. The animal's movements were recorded, and reported as arm entries when the animal entered the arm with its hind paw, and the animal's movement was represented by an alternation, which was defined as one alternation when the animal passed through the three arms in succession. The amount of spontaneous alternation behavior was expressed as a percentage between the actual number of alternations and the maximum possible number of alternations (i.e., the total number of […] minus 2).
The experiment was conducted in a box (40×40×40 cm) made so that the outside could not be seen from the inside. Two objects (A, A′) of the same shape and size were fixedly disposed in a box and the mouse was relocated to start from the center of the box. Then, the number of times the mouse made contact with the two objects was recorded for 10 minutes. After 24 hours, one of the two objects was replaced with a new object (A, B). Then, one original object and one new object were prepared, and the animal's exploration time was measured.
as §2

| Substance | Gut microbiota Inhibition of difficile bacteria proliferation [1] | Gut microbiota Inhibition of LPS production [2] | PC12 cell Induction of NPY expression [3] | Colon (cm) [4] [cm] | IFN-γ/IL-10 [4] | IL-10 [4] [pg/mg] | Interferon (IFN)-γ [4] [pg/mg] | MPO activity [4] [μUnit/mg] | TNF-α [4] [pg/mg] | TNF-α/IL-10 [4] | Antioxidant activity [5] | Exoporation (%) (in NOR task) [6] | Spontaneous alteration (%) (in Y-maze task) [6] | IFN-γ/IL-10 ([6]; hippocampus) | IL-10 ([6]; hippocampus) [pg/mg] | Interferon (IFN)-γ ([6]; hippocampus) [pg/mg] | TNF-α ([6]; hippocampus) [pg/mg] | TNF-α/IL-10 ([6]; hippocampus) | inhibiting the proliferation of intestinal Clostridium difficile ([1]; result in words, summary of Table 2) |
| --- | --- | --- | --- | --- | --- | --- | --- | --- | --- | --- | --- | --- | --- | --- | --- | --- | --- | --- | --- |
| Bifidobacterium longum NK219 | +++ (very strongly (+++; >90%)) | +++ (very strongly (+++; >90%)) | ++ (strongly (++; >60-90%)) | 4.8 | 2.35 | 19.56 | 44.72 | 4.30 | 18.59 | 0.96 | +++ (very strongly (+++; >90%)) | 76.97 | 71.06 | 0.50 | 47.71 | 24.09 | 10.72 | 0.24 | – |
| Lactobacillus rhamnosus NK210 | +++ (very strongly (+++; >90%)) | +++ (very strongly (+++; >90%)) | +++ (very strongly (+++; >90%)) | 5.0 | 2.50 | 21.10 | 44.24 | 4.55 | 20.76 | 0.98 | +++ (very strongly (+++; >90%)) | 76.00 | 69.36 | 0.52 | 46.94 | 23.04 | – | 0.23 | – |
| Lactococcus lactis NK209 | +++ (very strongly (+++; >90%)) | + (weakly (+; >20-60%)) | + (weakly (+; >20-60%)) | – | – | – | – | – | – | – | + (weakly (+; >20-60%)) | – | – | – | – | – | – | – | significant effect |
